Key:
Nucleic Acid [1] = assay: Binding affinity to Escherichia coli pUC19 DNA assessed as form 1 DNA level at 0.463 mM after 15 hrs by agarose gel electrophoresis; type: nucleic-acid assay
Nucleic Acid [2] = assay: Binding affinity to Escherichia coli pUC19 DNA assessed as form 2 DNA level at 0.175 mM after 13.07 hrs by agarose gel electrophoresis; type: nucleic-acid assay
Nucleic Acid [3] = assay: Binding affinity to Escherichia coli pUC19 DNA assessed as form 2 DNA level at 0.698 mM after 23.12 hrs by agarose gel electrophoresis; type: nucleic-acid assay
Nucleic Acid [4] = assay: Binding affinity to Escherichia coli pUC19 DNA assessed as form 1 DNA level at 0.698 mM after 23.12 hrs by agarose gel electrophoresis; type: nucleic-acid assay
Nucleic Acid [5] = assay: Binding affinity to Escherichia coli pUC19 DNA assessed as form 2 DNA level at 0.463 mM after 4.42 hrs by agarose gel electrophoresis; type: nucleic-acid assay
Nucleic Acid [6] = assay: Binding affinity to Escherichia coli pUC19 DNA assessed as form 1 DNA level at 0.698 mM after 4.95 hrs by agarose gel electrophoresis; type: nucleic-acid assay
Nucleic Acid [7] = assay: Binding affinity to Escherichia coli pUC19 DNA assessed as form 1 DNA level at 0.698 mM by agarose gel electrophoresis; type: nucleic-acid assay
Nucleic Acid [8] = assay: Binding affinity to Escherichia coli pUC19 DNA assessed as form 2 DNA level at 0.698 mM after 9.07 hrs by agarose gel electrophoresis; type: nucleic-acid assay
Nucleic Acid [9] = assay: Binding affinity to Escherichia coli pUC19 DNA assessed as form 1 DNA level at 0.175 mM after 4.95 hrs by agarose gel electrophoresis; type: nucleic-acid assay
Nucleic Acid [10] = assay: Binding affinity to Escherichia coli pUC19 DNA assessed as form 2 DNA level at 0.320 mM by agarose gel electrophoresis; type: nucleic-acid assay
Nucleic Acid [11] = assay: Binding affinity to Escherichia coli pUC19 DNA assessed as form 2 DNA level at 0.463 mM after 15 hrs by agarose gel electrophoresis; type: nucleic-acid assay
HL-60 [12] = assay: Growth inhibition of human HL60 cells at 1000 uM after 72 hrs by MTT assay; type: functional; parameters: scale not given: the % may be the effect or the level left
Nucleic Acid [13] = assay: Binding affinity to Escherichia coli pUC19 DNA assessed as form 1 DNA level at 0.463 mM after 7.08 hrs by agarose gel electrophoresis; type: nucleic-acid assay
Nucleic Acid [14] = assay: Binding affinity to Escherichia coli pUC19 DNA assessed as form 2 DNA level at 0.175 mM after 9.07 hrs by agarose gel electrophoresis; type: nucleic-acid assay
Nucleic Acid [15] = assay: Binding affinity to Escherichia coli pUC19 DNA assessed as form 2 DNA level at 0.698 mM after 4.95 hrs by agarose gel electrophoresis; type: nucleic-acid assay
Nucleic Acid [16] = assay: Binding affinity to Escherichia coli pUC19 DNA assessed as form 2 DNA level at 0.175 mM after 4.95 hrs by agarose gel electrophoresis; type: nucleic-acid assay
HL-60 [17] = assay: Growth inhibition of human HL60 cells at 100 uM after 72 hrs by MTT assay; type: functional; parameters: scale not given: the % may be the effect or the level left
Nucleic Acid [18] = assay: Binding affinity to Escherichia coli pUC19 DNA assessed as form 2 DNA level at 0.463 mM after 11.30 hrs by agarose gel electrophoresis; type: nucleic-acid assay
Nucleic Acid [19] = assay: Binding affinity to Escherichia coli pUC19 DNA assessed as form 1 DNA level at 0.175 mM after 23.12 hrs by agarose gel electrophoresis; type: nucleic-acid assay
Nucleic Acid [20] = assay: Binding affinity to Escherichia coli pUC19 DNA assessed as form 1 DNA level at 0.320 mM after 4.95 hrs by agarose gel electrophoresis; type: nucleic-acid assay
Nucleic Acid [21] = assay: Binding affinity to Escherichia coli pUC19 DNA assessed as form 2 DNA level at 0.698 mM after 13.07 hrs by agarose gel electrophoresis; type: nucleic-acid assay
Nucleic Acid [22] = assay: Binding affinity to Escherichia coli pUC19 DNA assessed as form 1 DNA level at 0.463 mM after 11.30 hrs by agarose gel electrophoresis; type: nucleic-acid assay
Nucleic Acid [23] = assay: Binding affinity to Escherichia coli pUC19 DNA assessed as form 2 DNA level at 0.320 mM after 27.33 hrs by agarose gel electrophoresis; type: nucleic-acid assay
Nucleic Acid [24] = assay: Binding affinity to Escherichia coli pUC19 DNA assessed as form 1 DNA level at 0.698 mM after 13.07 hrs by agarose gel electrophoresis; type: nucleic-acid assay
Nucleic Acid [25] = assay: Binding affinity to Escherichia coli pUC19 DNA assessed as form 1 DNA level at 0.175 mM after 9.07 hrs by agarose gel electrophoresis; type: nucleic-acid assay
Nucleic Acid [26] = assay: Binding affinity to Escherichia coli pUC19 DNA assessed as form 1 DNA level at 0.320 mM after 27.33 hrs by agarose gel electrophoresis; type: nucleic-acid assay
Nucleic Acid [27] = assay: Binding affinity to Escherichia coli pUC19 DNA assessed as form 2 DNA level at 0.175 mM by agarose gel electrophoresis; type: nucleic-acid assay
HL-60 [28] = assay: Growth inhibition of human HL60 cells at 10 uM after 72 hrs by MTT assay; type: functional; parameters: scale not given: the % may be the effect or the level left
Nucleic Acid [29] = assay: Binding affinity to Escherichia coli pUC19 DNA assessed as form 2 DNA level at 0.175 mM after 23.12 hrs by agarose gel electrophoresis; type: nucleic-acid assay
Nucleic Acid [30] = assay: Binding affinity to Escherichia coli pUC19 DNA assessed as form 1 DNA level at 0.698 mM after 9.07 hrs by agarose gel electrophoresis; type: nucleic-acid assay
Nucleic Acid [31] = assay: Binding affinity to Escherichia coli pUC19 DNA assessed as form 2 DNA level at 0.320 mM after 4.95 hrs by agarose gel electrophoresis; type: nucleic-acid assay
Nucleic Acid [32] = assay: Binding affinity to Escherichia coli pUC19 DNA assessed as form 1 DNA level at 0.175 mM by agarose gel electrophoresis; type: nucleic-acid assay
HeLa [33] = assay: Growth inhibition of human HeLa cells at 100 uM after 72 hrs by MTT assay; type: functional; parameters: scale not given: the % may be the effect or the level left
Nucleic Acid [34] = assay: Binding affinity to Escherichia coli pUC19 DNA assessed as form 2 DNA level at 0.698 mM by agarose gel electrophoresis; type: nucleic-acid assay
Nucleic Acid [35] = assay: Binding affinity to Escherichia coli pUC19 DNA assessed as form 2 DNA level at 0.463 mM after 7.08 hrs by agarose gel electrophoresis; type: nucleic-acid assay
Nucleic Acid [36] = assay: Binding affinity to Escherichia coli pUC19 DNA assessed as form 1 DNA level at 0.463 mM after 4.42 hrs by agarose gel electrophoresis; type: nucleic-acid assay
Nucleic Acid [37] = assay: Binding affinity to Escherichia coli pUC19 DNA assessed as form 2 DNA level at 0.463 mM by agarose gel electrophoresis; type: nucleic-acid assay
Nucleic Acid [38] = assay: Binding affinity to Escherichia coli pUC19 DNA assessed as form 2 DNA level at 0.320 mM after 13.07 hrs by agarose gel electrophoresis; type: nucleic-acid assay
Nucleic Acid [39] = assay: Binding affinity to Escherichia coli pUC19 DNA assessed as form 2 DNA level at 0.320 mM after 9.07 hrs by agarose gel electrophoresis; type: nucleic-acid assay
Nucleic Acid [40] = assay: Binding affinity to Escherichia coli pUC19 DNA assessed as form 1 DNA level at 0.320 mM after 13.07 hrs by agarose gel electrophoresis; type: nucleic-acid assay
Nucleic Acid [41] = assay: Binding affinity to Escherichia coli pUC19 DNA assessed as form 1 DNA level at 0.463 mM by agarose gel electrophoresis; type: nucleic-acid assay
HeLa [42] = assay: Growth inhibition of human HeLa cells at 1000 uM after 72 hrs by MTT assay; type: functional; parameters: scale not given: the % may be the effect or the level left
Nucleic Acid [43] = assay: Binding affinity to Escherichia coli pUC19 DNA assessed as form 1 DNA level at 0.320 mM after 9.07 hrs by agarose gel electrophoresis; type: nucleic-acid assay
Nucleic Acid [44] = assay: Binding affinity to Escherichia coli pUC19 DNA assessed as form 1 DNA level at 0.175 mM after 13.07 hrs by agarose gel electrophoresis; type: nucleic-acid assay
HeLa [45] = assay: Growth inhibition of human HeLa cells at 10 uM after 72 hrs by MTT assay; type: functional; parameters: scale not given: the % may be the effect or the level left
Nucleic Acid [46] = assay: Binding affinity to Escherichia coli pUC19 DNA assessed as form 1 DNA level at 0.320 mM by agarose gel electrophoresis; type: nucleic-acid assay

Structure (SMILES): Cl.Cl.NNC1=NCCN1
- Activity (Nucleic Acid [1]): 90.3%
- Activity (Nucleic Acid [2]): 3.07%
- Activity (Nucleic Acid [3]): 14.2%
- Activity (Nucleic Acid [4]): 85.8%
- Activity (Nucleic Acid [5]): 2.64%
- Activity (Nucleic Acid [6]): 97.9%
- Activity (Nucleic Acid [7]): 98.5%
- Activity (Nucleic Acid [8]): 4.22%
- Activity (Nucleic Acid [9]): 98.6%
- Activity (Nucleic Acid [10]): 3.24%
- Activity (Nucleic Acid [11]): 9.67%
- Activity (HL-60 [12]): 57%
- Activity (Nucleic Acid [13]): 95.2%
- Activity (Nucleic Acid [14]): 1.8%
- Activity (Nucleic Acid [15]): 2.13%
- Activity (Nucleic Acid [16]): 1.43%
- Activity (HL-60 [17]): 4%
- Activity (Nucleic Acid [18]): 7.13%
- Activity (Nucleic Acid [19]): 93.9%
- Activity (Nucleic Acid [20]): 95%
- Activity (Nucleic Acid [21]): 7.62%
- Activity (Nucleic Acid [22]): 92.9%
- Activity (Nucleic Acid [23]): 27.8%
- Activity (Nucleic Acid [24]): 92.4%
- Activity (Nucleic Acid [25]): 98.2%
- Activity (Nucleic Acid [26]): 72.2%
- Activity (Nucleic Acid [27]): 0.4%
- Activity (HL-60 [28]): 1%
- Activity (Nucleic Acid [29]): 6.09%
- Activity (Nucleic Acid [30]): 95.8%
- Activity (Nucleic Acid [31]): 5.03%
- Activity (Nucleic Acid [32]): 99.6%
- Activity (HeLa [33]): 1%
- Activity (Nucleic Acid [34]): 1.52%
- Activity (Nucleic Acid [35]): 4.78%
- Activity (Nucleic Acid [36]): 97.4%
- Activity (Nucleic Acid [37]): 2.43%
- Activity (Nucleic Acid [38]): 7.99%
- Activity (Nucleic Acid [39]): 5.87%
- Activity (Nucleic Acid [40]): 92%
- Activity (Nucleic Acid [41]): 97.6%
- Activity (HeLa [42]): 2%
- Activity (Nucleic Acid [43]): 94.1%
- Activity (Nucleic Acid [44]): 96.9%
- Activity (HeLa [45]): 1%
- Activity (Nucleic Acid [46]): 96.8%

Reference: ChEMBL document CHEMBL1154064, “Synthesis and DNA cleavage activity of 2-hydrazinyl-1,4,5,6-tetrahydropyrimidine containing hydroxy group” (2009)
